The target of experiment [1] is T1, Recombinant human NK3 (hNK3) receptor (Homo sapiens, UniProt P29371).
T1 construct: expressed in transfected cells
T1 sequence (P29371 1-465): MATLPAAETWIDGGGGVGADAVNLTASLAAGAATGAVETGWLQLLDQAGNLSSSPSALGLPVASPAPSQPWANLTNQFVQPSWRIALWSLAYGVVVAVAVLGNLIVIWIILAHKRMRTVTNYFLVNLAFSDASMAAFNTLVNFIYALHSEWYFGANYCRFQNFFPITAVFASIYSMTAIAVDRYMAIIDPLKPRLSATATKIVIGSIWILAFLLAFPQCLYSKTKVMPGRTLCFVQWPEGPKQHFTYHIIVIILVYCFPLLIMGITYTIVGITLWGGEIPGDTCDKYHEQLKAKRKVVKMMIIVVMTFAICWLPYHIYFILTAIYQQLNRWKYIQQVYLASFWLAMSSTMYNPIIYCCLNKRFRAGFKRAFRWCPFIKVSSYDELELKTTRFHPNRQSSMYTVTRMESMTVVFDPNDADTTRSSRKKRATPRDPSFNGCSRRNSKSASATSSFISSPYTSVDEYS
Briefly: NK3 receptor binding, [3H]SR142801 displacement, membrane preparations. In short, it runs like this: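 Buffer: Tris-HCl 50 mM pH 7.4, BSA 0.1%, MnCl2 4 mM, phosphoramidon 1 μM. ~2.5 μg membrane/well, 90 min RT. NSB with SB222200 (10 μM). Vacuum filtration over 0.3% PEI-treated GF/C, cold Tris/BSA washes, scintillation count; duplicates, ≥2 experiments.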

Experiment [2] concerns the target human NK1 receptor (Homo sapiens, UniProt P25103). Briefly: NK1 receptor binding, [3H]substance P displacement, CHO cell membranes.
Where [3] appears, read: second value of the cell pKi NK1/NK3, hNK3 receptor, [3H]SR142801.
[4] abbreviates: first value of the cell pKi NK1/NK3, human NK1 receptor, [3H]substance P.
The mark [5] stands for this setting: second value of the cell NK1/NK3, read-out: pKi NK3 (converted).
The mark [6] stands for this setting: first value of the cell NK1/NK3, read-out: pKi NK1 (converted).

Like-named read-outs stand apart in the source and are kept apart here.

Results on 9 compounds are retold here after patent US8404708B2, “Dual NK1/NK3 receptor antagonists” (Hoffmann-La Roche Inc., priority 2004, dated 2013).

human NK1 receptor, sequence (P25103 whole entry): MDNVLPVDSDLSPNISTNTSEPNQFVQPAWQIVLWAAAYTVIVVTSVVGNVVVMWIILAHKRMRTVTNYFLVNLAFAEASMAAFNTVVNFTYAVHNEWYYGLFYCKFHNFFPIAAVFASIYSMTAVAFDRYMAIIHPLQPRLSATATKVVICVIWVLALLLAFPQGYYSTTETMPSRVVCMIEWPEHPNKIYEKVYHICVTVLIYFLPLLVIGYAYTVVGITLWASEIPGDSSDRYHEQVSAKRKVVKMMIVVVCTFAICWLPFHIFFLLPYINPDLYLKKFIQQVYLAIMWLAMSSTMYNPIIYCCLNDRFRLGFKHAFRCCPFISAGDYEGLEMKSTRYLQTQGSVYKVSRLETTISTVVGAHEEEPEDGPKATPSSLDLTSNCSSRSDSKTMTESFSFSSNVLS

For the compound `CN(C(=O)C(C)(C)c1cc(C(F)(F)F)cc(C(F)(F)F)c1)c1cnc(N2CCCC(O)C2)cc1-c1ccccc1Cl` (racemic) [Example 50, (RS)-2-(3,5-Bis-trifluoromethyl-phenyl)-N-[4′-(2-chloro-phenyl)-3-hydroxy-3,4,5,6-tetrahydro-2H-[1,2′]bipyridinyl-5′-yl]-N-methyl-isobutyramide], the Ki in experiment [1] (setting [3]) is 14.5 nM; in experiment [2] (setting [4]), 1.41 nM.
As to `CN(C(=O)C(C)(C)c1cc(C(F)(F)F)cc(C(F)(F)F)c1)c1cnc(N2C[C@H](O)C[C@H]2CO)cc1-c1ccc(F)cc1Cl` [Example 221, (2S,4R)-2-(3,5-Bis-trifluoromethyl-phenyl)-N-[4-(2-chloro-4-fluoro-phenyl)-6-(4-hydroxy-2-hydroxymethyl-pyrrolidin-1-yl)-pyridin-3-yl]-N-methyl-isobutyramide], the Ki in experiment [1] (setting [5]) was 5.25 nM; in experiment [2] (setting [6]), 0.933 nM.
`Cc1ccccc1-c1cc(N2CC[C@H](O)[C@@H](CO)C2)ncc1N(C)C(=O)C(C)(C)c1cc(C(F)(F)F)cc(C(F)(F)F)c1` (racemic) [Example 191, (3RS,4SR)-2-(3,5-Bis-trifluoromethyl-phenyl)-N-(4-hydroxy-3-hydroxymethyl-4′-o-tolyl-3,4,5,6-tetrahydro-2H-[1,2′]bipyridinyl-5′-yl)-N-methyl-isobutyramide]: the Ki in experiment [1] (setting [3]) is 24.5 nM; in experiment [2] (setting [4]), 2.04 nM.
With `CCCCCCN(CCO)c1cc(-c2ccccc2Cl)c(N(C)C(=O)C(C)(C)c2cc(C(F)(F)F)cc(C(F)(F)F)c2)cn1` [Example 148, 2-(3,5-Bis-trifluoromethyl-phenyl)-N-{4-(2-chloro-phenyl)-6-[hexyl-(2-hydroxy-ethyl)-amino]-pyridin-3-yl}-N-methyl-isobutyramide], the Ki was 12 nM in experiment [1] (setting [3]) and 2.09 nM in experiment [2] (setting [4]).
Regarding `COc1ccccc1-c1cc(N2CC[C@H](O)[C@H]2CO)ncc1N(C)C(=O)C(C)(C)c1cc(C(F)(F)F)cc(C(F)(F)F)c1` [Example 263, (2R,3S)-2-(3,5-Bis-trifluoromethyl-phenyl)-N-[6-(3-hydroxy-2-hydroxymethyl-pyrrolidin-1-yl)-4-(2-methoxy-phenyl)-pyridin-3-yl]-N-methyl-isobutyramide], the Ki in experiment [1] (setting [5]) is 1.35 nM; in experiment [2] (setting [6]), 1.02 nM.
As to `CC(=O)N[C@H]1CCN(c2cc(-c3ccc(F)cc3C)c(N(C)C(=O)C(C)(C)c3cc(C(F)(F)F)cc(C(F)(F)F)c3)cn2)C1` [Example 99, (S)-N-[6-(3-Acetylamino-pyrrolidin-1-yl)-4-(4-fluoro-2-methyl-phenyl)-pyridin-3-yl]-2-(3,5-bis-trifluoromethyl-phenyl)-N-methyl-isobutyramide], the Ki was 55 nM in experiment [1] (setting [3]) and 0.813 nM in experiment [2] (setting [4]).
Consider `CN(C(=O)C(C)(C)c1cc(C(F)(F)F)cc(C(F)(F)F)c1)c1cnc(N2CC[C@H](O)[C@H]2CO)cc1-c1cc(F)ccc1F` [Example 277, (2R,3S)-2-(3,5-Bis-trifluoromethyl-phenyl)-N-[4-(2,5-difluoro-phenyl)-6-(3-hydroxy-2-hydroxymethyl-pyrrolidin-1-yl)-pyridin-3-yl]-N-methyl-isobutyramide], for which the Ki is 2.45 nM in experiment [1] (setting [5]) and 1.48 nM in experiment [2] (setting [6]).
For the compound `CN(C(=O)C(C)(C)c1cc(C(F)(F)F)cc(C(F)(F)F)c1)c1cnc(N(CCO)CCO)cc1-c1ccc(Cl)c(Cl)c1` [Example 87, N-[6-[Bis-(2-hydroxy-ethyl)-amino]-4-(3,4-dichloro-phenyl)-pyridin-3-yl]-2-(3,5-bis-trifluoromethyl-phenyl)-N-methyl-isobutyramide], the Ki was 9.55 nM in experiment [1] (setting [3]) and 1.58 nM in experiment [2] (setting [4]).
In the same order, the values of `Cc1cc(F)ccc1-c1cc(N2C[C@H](O)C[C@H]2CO)ncc1N(C)C(=O)C(C)(C)c1cc(Cl)cc(Cl)c1` [Example 23, (2S,4R)-2-(3,5-Dichloro-phenyl)-N-[4-(4-fluoro-2-methyl-phenyl)-6-(4-hydroxy-2-hydroxymethyl-pyrrolidin-1-yl)-pyridin-3-yl]-N-methyl-isobutyramide] are 1.58 nM and 0.891 nM.
